How the values were obtained:
[1] = system: promoter region including the HSE sequence for HSP47; assay: Reporter protein expression suppression, stable transformant A (HSE/HSP47 promoter β-galactosidase); type: cell-based, Chinese hamster; settings: heat shock 42° C. 90 min, relative to DMSO
Text: A plasmid was produced in which a β-galactosidase gene was located downstream of a promoter region including the HSE sequence for HSP47. […] Chinese hamster ovary (CHO) cells were transfected with the plasmid to obtain stable transformant […]. These stable transformants were pre-treated with Compounds 101, 102 and 103 above and Compound C (1-acetyl-3-benzo-(1,3)dioxole-5-ylmethylene-pyrrolidin-2-one; this compound is represented by general formula (I) of the present invention wherein X is —CH2— and R^1 is acetyl) in a CO2 incubator at 37° C. for 60 min. Then, the transformants were subjected to a heat shock of 42° C. for 90 min, recovered at 37° C. for 2 hours, and incubated at a room temperature for 30 min with 4-methylumbelliferyl-β-D-galactoside as a substrate for the activity of β-galactosidase expressed in the cell. Then, the fluorescence was measured (excitation at 365 nm, emission at 450 nm). The amount of β-galactosidase expressed after a treatment with test compounds or the known HSF and HSP inhibitor quercetin as a control agent was divided by the amount of β-galactosidase expressed after a treatment with dimethylsulfoxide (DMSO) as a solvent control, thereby calculating the expression rate (%) as shown in Table 1.

SV40 early promoter = assay: Reporter protein expression suppression, stable transformant B (SV40 early promoter β-galactosidase); type: cell-based, Chinese hamster; settings: heat shock 42° C. 90 min, relative to DMSO
[2] = system: HSP70 (inducible type) mRNA; assay: Transcription suppression of HSP70 (inducible type) mRNA by Northern hybridization; type: cell-based; settings: COLO320DM cells, heat shock 42° C. 90 min; for Transcription Amount of HSP70 (induced type): 100 μM, DMSO = 1.0
Experimental: COLO320DM cells (ATCC CCL-220) were pre-treated with Compounds 101, 102 and 103 in a CO2 incubator at 37° C. for 60 min using 10% FCS, DMEM medium (Gibco BRL), after which the cell was subjected to a heat shock of 42° C. for 90 min. Immediately thereafter, the treated cells were collected, and total RNA was extracted from the cells by using the acid guanidine thiocyanate phenol chloroform (AGPC) method. The total RNA was electrophoresed, transferred to a nylon filter, and the amounts of HSP mRNA were compared among experimental groups by using the Northern hybridization method. cDNA of HSP70 (inducible type) labeled with [α-^32P] dCTP was used as a probe, and cDNA of β-actin was used as an internal control. […] Table 2 provides comparison in the amount of transcription of HSP70 (inducible type) among cells which were subjected to a heat shock after treatment with the respective compounds, with the amount of induced transcription in a cell treated with the control solvent DMSO being 1.0.

HSP40 = assay: HSP expression induction suppression by 2-dimensional electrophoresis, HSP40; type: cell-based; design: key: ↑↑↑: Not Suppressed (Strongly Induced); ↓: Slightly Suppressed; ↓↓: Suppressed; ↓↓↓: Strongly Suppressed; settings: 100 μM; COLO320DM cells; compared with DMSO control
Experimental: (§1) COLO320DM cells were pre-treated with Compounds 101, 102 and 103 at 37° C. for 60 min, followed by application of a heat shock at 42° C. for 90 min, and recovery at 37° C. for 2 hours. Then, the media were replaced with methionine-free media, and the cells were treated at 37° C. for 1 hour with ^35S-methionine to label newly synthesized proteins.
(§2) The cell lysate was obtained, subjected to an isoelectric focusing as the first dimension and then to an expansion by SDS-PAGE as the second dimension. Then, the gel was subjected to fluorography so as to compare between the amounts of HSP synthesized with and without heat induction. Comparison between the amounts of β-actin synthesized as an internal control with and without heat induction confirmed that the other proteins were normally synthesized.

HSP47 = assay: HSP expression induction suppression by 2-dimensional electrophoresis, HSP47; type: cell-based; design: key: ↑↑↑: Not Suppressed (Strongly Induced); ↓: Slightly Suppressed; ↓↓: Suppressed; ↓↓↓: Strongly Suppressed; settings: 100 μM; COLO320DM cells; compared with DMSO control
Experimental: as §1, §2

HSP70 = assay: HSP expression induction suppression by 2-dimensional electrophoresis, HSP70; type: cell-based; design: key: ↑↑↑: Not Suppressed (Strongly Induced); ↓: Slightly Suppressed; ↓↓: Suppressed; ↓↓↓: Strongly Suppressed; settings: 100 μM; COLO320DM cells; compared with DMSO control
Experimental: as §1, §2

HSP90 = assay: HSP expression induction suppression by 2-dimensional electrophoresis, HSP90; type: cell-based; design: key: ↑↑↑: Not Suppressed (Strongly Induced); ↓: Slightly Suppressed; ↓↓: Suppressed; ↓↓↓: Strongly Suppressed; settings: 100 μM; COLO320DM cells; compared with DMSO control
Experimental: as §1, §2

HSP100 = assay: HSP expression induction suppression by 2-dimensional electrophoresis, HSP100; type: cell-based; design: key: ↑↑↑: Not Suppressed (Strongly Induced); ↓: Slightly Suppressed; ↓↓: Suppressed; ↓↓↓: Strongly Suppressed; settings: 100 μM; COLO320DM cells; compared with DMSO control
Experimental: as §1, §2

β-actin = assay: 2-dimensional electrophoresis, β-actin internal control; type: cell-based; settings: 100 μM; COLO320DM cells
Experimental: as §1, §2

COLO320DM cells = assay: Cell heat resistance suppression, colony formation assay; type: cell-based; settings: 100 μM; pre-heating 42° C. 90 min, then 45° C. 60 min; all colonies counted
Experimental: COLO320DM cells were pre-treated with the above-described compounds at 37° C. for 60 min, followed by pre-heating by application of a heat shock of 42° C. for 90 min. The cells were further treated at 37° C. for 60 min. Then, the media were replaced respectively with compound-free media, and the cells were further incubated at 37° C. for 60 min. Thereafter, the cells were treated at 45° C. for 60 min, and cultured for about 10 days followed by measurement of the number of surviving cells as the number of colonies using a colony formation assay. […] The number of colonies formed without the treatment at 45° C. was substantially the same among all of the drugs.
The compounds of the present invention clearly confirmed to have the inhibitory effect on the acquisition of cell heat resistance, which is greater than that obtained with the known inhibitor quercetin. The surviving fraction was calculated according to the following formula: Surviving Fraction (%)=A/B×100 • A: Cell Survival Fraction With Treatment at 45° C. for 60 min • B: Cell Survival Fraction Without Treatment at 45° C. Cell Survival Fraction=C/D • C: Number of Surviving Cells • D: Number of Cells Seeded

[3] = Antidepressant effect in forced swimming test; type: in vivo; settings: 100 mg/kg orally once, Wistar male rat; for No-Movement Period: 5-minute test; for Suppression Rate (%): versus physiological saline
Experimental: The experiment was conducted as a partial modification of the Porsolt, R. D. et al. method (Eur. J. Pharm., 47: 379, 1978). In particular, a Wistar male rat (5 weeks of age, weight: 130-150 g) was dropped into water (temperature: 25° C.) about 15 cm deep in a glass cylinder having an inner diameter of 18 cm and a height of 40 cm. The rat was taken out after 15 min, dried and put back into a home cage. […] One hundred mg/kg of each test compound, suspended in a physiological saline, was orally administered once before the 5-minute test so as to examine the antidepression effect. One hundred mg/kg of imipramine, a known antidepressant, as a control drug and 5 ml/kg of a physiological saline as a control were similarly orally administered. A shortened no-movement period was calculated as a suppression rate according to the following formula: Suppression Rate (%)=(E−F)/E×100 • E: No-Movement Period with Physiological Saline • F: No-Movement Period with Test Compound

[4] = system: murine carcinoma cell (SCC VII); assay: Inhibitory effect on cancer heat resistance acquisition, tumor growth delay assay; type: in vivo, C3H/He mice
Experimental: A murine carcinoma cell (SCC VII) was implanted in the right leg of C3H/He mice (male, about 10 mice for each group), and the experiment was started when the tumor became about 1 cm in diameter. The tumor was heated by soaking the tumor site of each mouse under general anaesthesia into a constant temperature bath at 44° C. The inhibitory effect on the heat resistance acquisition by cancer cell was examined by a growth delay assay on the tumor. Two hundred mg/kg of each test compound, suspended in an olive oil, was intraperitoneally administered once 6 hours before the first heating. The first heating was performed for 10 minutes (H1), and the second heating was performed for 30 minutes (H2), with a recovery period of 8 hours at room temperature between the first heating and the second heating.

Compound	Expression Rate (%) Transformant A ([1]; 5 μM) [%]	Expression Rate (%) Transformant A ([1]; 50 μM) [%]	Expression Rate (%) Transformant B (SV40 early promoter; 5 μM) [%]	Expression Rate (%) Transformant B (SV40 early promoter; 50 μM) [%]	Transcription Amount of HSP70 (induced type) [2]	Suppression of mRNA transcription of HSP70 (in words) [2]	HSP Induction by Heat Shock Treatment, HPS40 (HSP40)	HSP Induction by Heat Shock Treatment, HSP47 (HSP47)	HSP Induction by Heat Shock Treatment, HSP70 (HSP70)	HSP Induction by Heat Shock Treatment, HSP90 (HSP90)	HSP Induction by Heat Shock Treatment, HSP100 (HSP100)	β-actin synthesis by Heat Shock Treatment (internal control) (β-actin)	Surviving Fraction (%) (COLO320DM cells)	No-Movement Period [3] [s]	Suppression Rate (%) [3] [%]	Expression Rate (%) Transformant A ([1]; 100 μM) [%]	Expression Rate (%) Transformant B (SV40 early promoter; 100 μM) [%]	Mean days before tumor tripled ([4]; 200 mg/kg i.p. 6 hours before first heating, 44° C. 10 min (H1), 8 hr, 30 min (H2)) [days]	Mean days before tumor tripled ([4]; 200 mg/kg i.p., 44° C., 30 min heating) [days]	Mean days before tumor tripled ([4]; 200 mg/kg intraperitoneally once, no heating) [days]
O=C1NCC/C1=C\c1ccc2c(c1)OCO2 [Compound 101]	46	1	90	61	0.03	specifically and significantly suppressed	↓↓↓	↓↓↓	↓↓↓	↓↓↓	↓↓↓	no change	<1	145	29	–	–	–	–	–
O=CN1CC/C(=C\c2ccc3c(c2)OCO3)C1=O [Compound 102]	57	3	88	75	0.04	specifically and significantly suppressed	↓↓↓	↓↓↓	↓↓↓	↓↓↓	↓↓↓	no change	<1	–	–	0	69	12.6	13.3	8.4
O=C1NCCC/C1=C\c1ccc2c(c1)OCO2 [Compound 103]	47	10	93	62	0.1	specifically and significantly suppressed	↓↓↓	↓↓↓	↓↓↓	↓↓↓	↓↓↓	no change	<1	90	56	2	46	–	–	–
CC(=O)N1CCC(=Cc2ccc3c(c2)OCO3)C1=O [Compound C, 1-acetyl-3-benzo-(1,3)dioxole-5-ylmethylene-pyrrolidin-2-one]	40	11	91	88	–	–	–	–	–	–	–	–	–	–	–	–	–	–	–	–
CN(C)CCCN1c2ccccc2CCc2ccccc21 [Imipramine, imipramine, reference compound]	–	–	–	–	–	–	–	–	–	–	–	–	–	180	12	–	–	–	–	–
O=c1c(O)c(-c2ccc(O)c(O)c2)oc2cc(O)cc(O)c12 [Quercetin, quercetin, reference compound]	99	25	96	82	0.4	–	↓↓	↓↓	↓	↓	↓	no change	6	–	–	6	58	–	–	–

— US6903116B2, “Methods of treating cancer using a heat shock factor activity inhibitor” (Kaneka Corp., priority 1997, dated 2005)
